Experimental data published in US20250270190A1, “KIT INHIBITORS” (BLUEPRINT MEDICINES CORPORATION, priority 2022, published 2025).

Molecular target: T1, c-kit autophosphorylation (Phospho c-Kit Tyr721) in HMC 1.1 (exon 11/13) cells, V654A (Homo sapiens, UniProt P10721, V560G/V654A)
T1 construct: endogenous in cells; host or cells: HMC 1.1 (exon 11/13) cells
Experiment: pKIT Meso Scale Discovery (MSD) assay, inhibition of autophosphorylation of KIT, HMC1.1_V654A
Type: cell-based
Conditions: Table 1, cell line not named for Table 1, b1056 names pKIT HMC1.1_V654A, read-out: Code (IC50 for inhibition of autophosphorylation of KIT, pKIT MSD assay)
From the text: In this MSD assay, specific capture antibodies for the analytes were coated in arrays in each well of a 96-well carbon electrode plate surface. The detection system used SULFO-TAG™ labels that emit light upon electrochemical stimulation initiated at the electrode surfaces of the […] and MULTI-SPOT® plates. The electrical stimulation was decoupled from the output signal, which was light and generated assays with minimal background. The goal of this assay was to assess the percent inhibition of autophosphorylation of c-kit in cells when treated with compounds of the disclosure in a dose-dependent manner.
HMC1.1 cells were maintained in IMDM media supplemented with 20% Calf Serum with Iron and 100 units/mL Penicillin-Streptomycin and grown in a 37° C. humidified tissue culture incubator. HMC1.1 cells were passaged by 1:5 dilution into fresh IMDM media supplemented with 20% Calf Serum with Iron and 100 units/mL Penicillin-Streptomycin every 5-7 days and were discarded after 20 passages.
Seeding was performed as follows: HMC cells were brought to 1×10^6 cells/mL in fresh phenol red free, serum-free, iron-free IDM media with Pen/Strep; cells were seeded/plated into respective U-bottom plate by dispensing 50 μL/well (50,000 cells) using the Multidrop, and covered and incubated cells at 37° C. in a humidified tissue culture incubator for 4 hours (starvation).
Dosing was performed as follows: The compound mother plate was prepared by adding 16 μL of compound to 24 μL of DMSO to row A, odd-numbered columns of screen matrix plate. […] Intermediate plates were prepared in V-bottom plates by dispensing 98 μL of phenol red free, serum free IMDM media with Pen/Strep into all wells. 2 μL DMSO or 2 μL 10 mM staurosporine was added to appropriate control wells. At the end of four hours, the Bravo protocol 10 cpds vertical dose MSD 2 U-plates 96-well was used to: add 2 μL from the compound plate to the intermediate plate and dose cells with 7 μL from the intermediate plate. The cells were covered and incubated at 37° C. in a humidified tissue culture incubator for 90 min. The complete lysis buffer was prepared with AlphaLISA 5× Lysis Buffer supplemented with 1× protease inhibitor cocktail and kept on ice. The cells were pelleted by centrifuging plate at 2500×g for 5 min, 4° C. and media removed. Complete lysis buffer was added (14 μL/well). The cells were covered and shaken at 4° C. on a plate shaker at 600 rpm for 30 min and kept cold
The MSD protocol was preformed as follows: Tris Wash Buffer (2L) was prepared by diluting 10× stock of Tris Wash Buffer to 1× in water. Blocking Solution was prepared by dissolving 600 mg Blocker A in 20 mL 1× Trish Wash Buffer (per plate). The Antibody Dilution Buffer was prepared by mixing 1 mL Blocking solution and 2 mL 1× Trish Wash Buffer (per plate) and kept on ice. Blocking Solution was added (150 μL/well) to each MSD plate using a multichannel repeater pipette. The plate was covered and incubated at room temperature on a plate shaker at 700 rpm for hr. The Bio Tek protocol RL-96w-wash-MSD_stacker_fromC was used to wash plates 3× with 150 μL/well. Cells were pelleted by centrifuging lysate plates at 2500×g for 5 mins. The Bravo protocol was used (transfer 25 ul supernatants from V-96 to assay plate) to transfer 25 μL sample lysate per well to each MSD plate. The plates were covered and incubated at room temperature on a plate shaker at 700 rpm for hr. The Bio Tek protocol RL-96w-wash-MSD_stacker_fromC was used to wash plates 3× with 150 μL/well. The Detection Antibody Solution was prepared by diluting the 60 μL of the 50× antibody stock in 2.94 mL of the Antibody Dilution Buffer (per plate) and kept on ice. 25 μL/well of detection antibody solution was added to each MSD plate. The plates were covered and incubated at room temperature on a plate shaker at 700 rpm for 1 hr. The Read Buffer was prepared by diluting 5 mL of 4× stock of Read Buffer to 1× in 15 mL water (per plate).

T1 sequence (P10721 26-976 V560G/V654A): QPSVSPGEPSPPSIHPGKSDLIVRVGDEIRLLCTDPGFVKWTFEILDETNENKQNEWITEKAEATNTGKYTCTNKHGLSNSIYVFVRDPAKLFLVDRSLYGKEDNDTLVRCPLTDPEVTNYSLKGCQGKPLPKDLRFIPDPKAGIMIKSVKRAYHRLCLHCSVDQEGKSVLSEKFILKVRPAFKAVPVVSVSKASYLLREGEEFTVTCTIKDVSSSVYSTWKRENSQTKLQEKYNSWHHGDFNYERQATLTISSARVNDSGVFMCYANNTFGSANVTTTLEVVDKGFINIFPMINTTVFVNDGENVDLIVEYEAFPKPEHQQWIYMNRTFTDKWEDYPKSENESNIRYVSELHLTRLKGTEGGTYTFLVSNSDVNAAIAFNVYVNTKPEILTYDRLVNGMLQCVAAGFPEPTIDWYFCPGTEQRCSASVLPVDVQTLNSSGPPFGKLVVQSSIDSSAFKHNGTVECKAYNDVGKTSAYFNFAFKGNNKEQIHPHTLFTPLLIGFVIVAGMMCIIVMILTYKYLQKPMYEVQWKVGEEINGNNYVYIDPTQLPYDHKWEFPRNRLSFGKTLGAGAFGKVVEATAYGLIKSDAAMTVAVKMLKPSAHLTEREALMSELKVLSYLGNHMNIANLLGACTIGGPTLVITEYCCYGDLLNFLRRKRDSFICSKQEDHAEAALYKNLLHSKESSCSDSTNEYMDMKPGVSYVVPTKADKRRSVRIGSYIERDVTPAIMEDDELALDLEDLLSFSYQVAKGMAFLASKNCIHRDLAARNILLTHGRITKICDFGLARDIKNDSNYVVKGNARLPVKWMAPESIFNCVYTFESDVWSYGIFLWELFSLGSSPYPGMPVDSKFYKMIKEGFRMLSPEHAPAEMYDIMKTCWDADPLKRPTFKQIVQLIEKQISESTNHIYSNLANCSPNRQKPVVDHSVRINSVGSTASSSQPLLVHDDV

In the case of `COc1cc(Nc2cc(N)nc(C(F)F)n2)ncc1-c1cnn(CC(C)O)c1` (stereo not shown) [Compound 85, 1-(4-(6-((6-amino-2-(difluoromethyl)pyrimidin-4-yl)amino)-4-methoxypyridin-3-yl)-1H-pyrazol-1-yl)propan-2-ol], the IC50 is reported as 10 to 40 nM.

Compound `Cn1cc(-c2cnc(Nc3cc(N)nc(C(F)F)n3)cc2OCc2cccc(N)c2)cn1` [Compound 178, N4-(4-((3-aminobenzyl)oxy)-5-(1-methyl-1H-pyrazol-4-yl)pyridin-2-yl)-2-(difluoromethyl)pyrimidine-4,6-diamine] has an IC50 of under 10 nM.

In the case of `Nc1cc(Nc2cc(OC(F)F)c(-c3cnn(CCN4CCC4)c3)cn2)nc(C(F)F)n1` [Compound 191, N4-(5-(1-(2-(azetidin-1-yl)ethyl)-1H-pyrazol-4-yl)-4-(difluoromethoxy)pyridin-2-yl)-2-(difluoromethyl)pyrimidine-4,6-diamine], the IC50 is reported as under 10 nM.

For `CCCNC(=O)c1cnc(Nc2cc(N)nc(C(F)F)n2)cc1NC(C)C` [Compound 67, 6-((6-amino-2-(difluoromethyl)pyrimidin-4-yl)amino)-4-(isopropylamino)-N-propylnicotinamide], the IC50 was under 10 nM.

Compound `CC(C)Nc1cc(Nc2cc(N)nc(C(F)F)n2)ncc1C(=O)NCc1ncco1` [Compound 148, 6-((6-amino-2-(difluoromethyl)pyrimidin-4-yl)amino)-4-(isopropylamino)-N-(oxazol-2-ylmethyl)nicotinamide] has an IC50 of under 10 nM.

For `CNC(=O)c1cnc(Nc2cc(N)nc(C(F)F)n2)cc1NCc1ccccc1` [Compound 92, 6-((6-amino-2-(difluoromethyl)pyrimidin-4-yl)amino)-4-(benzylamino)-N-methylnicotinamide], the IC50 was 10 to 40 nM.

With `CNC(=O)c1cnc(Nc2cc(N)nc([C@H](C)F)n2)cc1NC1CC1` [Compound 15, (S)-6-((6-amino-2-(1-fluoroethyl)pyrimidin-4-yl)amino)-4-(cyclopropylamino)-N-methylnicotinamide] the IC50 was 10 to 40 nM.

With `CNC(=O)c1cnc(Nc2cc(N)nc(CF)n2)cc1N[C@@H](C)C(F)F` [Compound 46, (S)-6-((6-amino-2-(fluoromethyl)pyrimidin-4-yl)amino)-4-((1,1-difluoropropan-2-yl)amino)-N-methylnicotinamide] the IC50 was under 10 nM.

In the case of `CNC(=O)c1cnc(Nc2cc(N)nc(C(F)F)n2)cc1NC1CCOC1` (stereo not shown) [Compound 64, 6-((6-amino-2-(difluoromethyl)pyrimidin-4-yl)amino)-N-methyl-4-((tetrahydrofuran-3-yl)amino)nicotinamide], the IC50 is reported as 10 to 40 nM.

In the case of `C[C@@H](CF)Nc1cc(Nc2cc(N)nc(C(F)F)n2)ncc1C(=O)NCc1cocn1` [Compound 176, (S)-6-((6-amino-2-(difluoromethyl)pyrimidin-4-yl)amino)-4-((1-fluoropropan-2-yl)amino)-N-(oxazol-4-ylmethyl)nicotinamide], the IC50 is reported as under 10 nM.

Compound `Cn1cc(-c2cnc(Nc3cc(N)nc(C(F)F)n3)cc2OC2CCCOC2)cn1` (stereo not shown) [Compound 142, 2-(difluoromethyl)-N4-(5-(1-methyl-1H-pyrazol-4-yl)-4-((tetrahydro-2H-pyran-3-yl)oxy)pyridin-2-yl)pyrimidine-4,6-diamine] has an IC50 of under 10 nM.

`COc1cc(Nc2cc(N)nc(C(F)F)n2)ncc1-c1cnn(C(C)C)c1` [Compound 56] gave an IC50 of under 10 nM.

`Nc1cc(Nc2cc(OC3CC3)c(-c3cnn(C[C@@H]4CCN4)c3)cn2)nc(C(F)F)n1` (single isomer, unassigned) [Compound 162, (S)-N4-(5-(1-(azetidin-2-ylmethyl)-1H-pyrazol-4-yl)-4-cyclopropoxypyridin-2-yl)-2-(difluoromethyl)pyrimidine-4,6-diamine or (R)-N4-(5-(1-(azetidin-2-ylmethyl)-1H-pyrazol-4-yl)-4-cyclopropoxypyridin-2-yl)-2-(difluoromethyl)pyrimidine-4,6-diamine] gave an IC50 of under 10 nM.

With `CN(C)CCn1cc(-c2cnc(Nc3cc(N)nc(C(F)F)n3)cc2OC2CC2)cn1` [Compound 171, N4-(4-cyclopropoxy-5-(1-(2-(dimethylamino)ethyl)-1H-pyrazol-4-yl)pyridin-2-yl)-2-(difluoromethyl)pyrimidine-4,6-diamine] the IC50 was under 10 nM.

`CCNc1cc(Nc2cc(N)nc(C(F)F)n2)ncc1C(=O)NC12CC(CO)(C1)C2` [Compound 151, 6-((6-amino-2-(difluoromethyl)pyrimidin-4-yl)amino)-4-(ethylamino)-N-(3-(hydroxymethyl)bicyclo[1.1.1]pentan-1-yl)nicotinamide] gave an IC50 of under 10 nM.

In the case of `CNC(=O)c1cnc(Nc2cc(N)nc(C(F)F)n2)cc1N[C@H](C)C(F)F` [Compound 73, (R)-6-((6-amino-2-(difluoromethyl)pyrimidin-4-yl)amino)-4-((1,1-difluoropropan-2-yl)amino)-N-methylnicotinamide], the IC50 is reported as under 10 nM.

Work on `COCCn1cc(-c2cnc(Nc3cc(N)nc(C(F)F)n3)cc2OC)cn1` [Compound 84, 2-(difluoromethyl)-N4-(4-methoxy-5-(1-(2-methoxyethyl)-1H-pyrazol-4-yl)pyridin-2-yl)pyrimidine-4,6-diamine] yielded an IC50 of under 10 nM.

Work on `Cn1cc(-c2cnc(Nc3cc(N)nc(C(F)F)n3)cc2OCC2CCCCO2)cn1` (stereo not shown) [Compound 172, 2-(difluoromethyl)-N4-(5-(1-methyl-1H-pyrazol-4-yl)-4-((tetrahydro-2H-pyran-2-yl)methoxy)pyridin-2-yl)pyrimidine-4,6-diamine] yielded an IC50 of 10 to 40 nM.

`CNC(=O)c1cnc(Nc2cc(N)nc(C(F)F)n2)cc1NC(CF)CF` [Compound 75, 6-((6-amino-2-(difluoromethyl)pyrimidin-4-yl)amino)-4-((1,3-difluoropropan-2-yl)amino)-N-methylnicotinamide] was tested, and the IC50 was under 10 nM.

Work on `COc1cc(Nc2cc(N)nc(C(F)F)n2)ncc1-c1cnn(CC(C)N(C)C)c1` (stereo not shown) [Compound 150, 2-(difluoromethyl)-N4-(5-(1-(2-(dimethylamino)propyl)-1H-pyrazol-4-yl)-4-methoxypyridin-2-yl)pyrimidine-4,6-diamine] yielded an IC50 of under 10 nM.

Work on `C[C@H](CF)Nc1cc(Nc2cc(N)nc(C(F)F)n2)ncc1C(=O)NC1CC1` [Compound 91, (R)-6-((6-amino-2-(difluoromethyl)pyrimidin-4-yl)amino)-N-cyclopropyl-4-((1-fluoropropan-2-yl)amino)nicotinamide] yielded an IC50 of under 10 nM.

In the case of `COc1cc(Nc2cc(N)nc(C(F)F)n2)ncc1-c1cnn(C2CN(C)C2)c1` [Compound 103, 2-(difluoromethyl)-N4-(4-methoxy-5-(1-(1-methylazetidin-3-yl)-1H-pyrazol-4-yl)pyridin-2-yl)pyrimidine-4,6-diamine], the IC50 is reported as under 10 nM.

Compound `CC(Oc1cc(Nc2cc(N)nc(C(F)F)n2)ncc1-c1cnn(C)c1)C(F)F` (stereo not shown) [Compound 128, 2-(difluoromethyl)-N4-(4-((1,1-difluoropropan-2-yl)oxy)-5-(1-methyl-1H-pyrazol-4-yl)pyridin-2-yl)pyrimidine-4,6-diamine] has an IC50 of under 10 nM.

Work on `CNCCn1cc(-c2cnc(Nc3cc(N)nc(C(F)F)n3)cc2OC2COC2)cn1` [Compound 175, 2-(difluoromethyl)-N4-(5-(1-(2-(methylamino)ethyl)-1H-pyrazol-4-yl)-4-(oxetan-3-yloxy)pyridin-2-yl)pyrimidine-4,6-diamine] yielded an IC50 of over 40 nM.

`CN(CCn1cc(-c2cnc(Nc3cc(N)nc(C(F)F)n3)cc2OC2CC2)cn1)CC(F)(F)F` [Compound 203, N4-(4-cyclopropoxy-5-(1-(2-(methyl(2,2,2-trifluoroethyl)amino)ethyl)-1H-pyrazol-4-yl)pyridin-2-yl)-2-(difluoromethyl)pyrimidine-4,6-diamine] was tested, and the IC50 was under 10 nM.
